Source: ChEMBL document CHEMBL5137010, “N-Acetyl-Cysteinylated Streptophenazines from Streptomyces” (J Nat Prod, 2022)
In brackets after ≈: the same amount, converted by molar mass.

Experiments:
[1] = tested on: Streptococcus pneumoniae; assay: Antibacterial activity against Streptococcus pneumoniae L44 assessed as inhibition of bacterial growth at 10 hrs by plate reader analysis; assay type: functional
[2] = tested on: Micrococcus luteus; assay: Antibacterial activity against Micrococcus luteus L108 assessed as inhibition of bacterial growth at 10 hrs by plate reader analysis; assay type: functional
[3] = Cytotoxicity against HEK293 cells assessed as reduction in cell viability incubated for 24 hrs by alamar blue assay; assay type: toxicity, cell-based; conditions: human
[4] = Cytotoxicity against human Caco-2 cells assessed as reduction in cell viability incubated for 24 hrs by alamar blue assay; assay type: toxicity, cell-based
[5] = tested on: Pseudomonas aeruginosa; assay: Antibacterial activity against Pseudomonas aeruginosa ATCC 27853 assessed as inhibition of bacterial growth at 10 hrs by plate reader analysis; assay type: functional
[6] = tested on: Staphylococcus aureus; assay: Antibacterial activity against Staphylococcus aureus L100 assessed as inhibition of bacterial growth at 10 hrs by plate reader analysis; assay type: functional
[7] = tested on: Enterococcus faecium; assay: Antibacterial activity against Enterococcus faecium L568 assessed as inhibition of bacterial growth at 10 hrs by plate reader analysis; assay type: functional
[8] = tested on: Escherichia coli; assay: Antibacterial activity against Escherichia coli L4242 harboring delta tolC mutant assessed as inhibition of bacterial growth at 10 hrs by plate reader analysis; assay type: functional

Question: Which results are given for `COC(=O)c1cccc2nc3c([C@@H](SC[C@H](NC(C)=O)C(=O)O)[C@@H](CCCCC(C)C)C(=O)OC)cccc3nc12`?
Answer: MIC [1]: 12 µM (≈ 7 µg/mL); MIC [2]: 68 µM (≈ 39.7 µg/mL); IC50 at 24 h [3]: > 220 µM; IC50 at 24 h [4]: 154 µM; MIC [5]: 428 µM (≈ 250 µg/mL); MIC [6]: 43 µM (≈ 25.1 µg/mL); MIC [7]: 428 µM (≈ 250 µg/mL); MIC [8]: 291 µM (≈ 170 µg/mL)
